In patent publication US10471025B2, “Compositions for use in treating parkinson's disease and related disorders” (Technophage, Investigação E Desenvolvimento Em …, priority 2015, dated 2019):
Values joined by “and” are separate entries in the source; they are usually repeats but may differ in a detail not shown here. Equal entries are not always repeated. “Also recorded” adds a separate entry of the source. Where two headings read alike, the source gives them in different places.

Assays:
[1] = system: 6-OHDA treated zebrafish larvae; test: Freezing (duration of freezing periods, light/dark stimulus) in 6-OHDA zebrafish larvae; assay type: in vivo; details: for Freezing recovery: optimal concentrations, methylphenidate 25 μM; for Duration of freezing periods, recovery vs 6-OHDA treated larvae: tapentadol 48.5, stavudine 50, nabumetone 0.91 μM, L-Dopa treatment
Protocol: In the zebrafish model, the locomotor impairment was measured and related with bradykinesia in patients. Tests included evaluating ‘freezing_ in response to a light/dark stimulus. 6-OHDA induced larvae had fewer freezing episodes but spent longer periods in the frozen state. In previous studies, the duration of freezing episodes has been analyzed in PD patients. […] Nonetheless, it is an inhibitor of the neuronal dopamine transporter and since 6-OHDA needs DAT to enter the neuron and induce the disease, methylphenidate may be a false positive.
As FIGS. 9B-9C show, freezing recovery was tested using 7 candidate molecules at optimal concentrations, in an exemplary experiment with n=8 fish, and methylphenidate and amantadine at 25 ? M.

[2] = system: 6-OHDA treated zebrafish larvae; test: Co-administration with L-Dopa, total distance 6-OHDA larvae move; assay type: in vivo; details: total distance; L-Dopa 250 or 125 μM
6-OHDA mouse model [3] = test: Cylinder test, 6-OHDA mice (Example 5); assay type: in vivo; parameters: Cylinder test: number of right turns: dose or concentration left out as unconfirmed
[4] = system: 6-OHDA treated zebrafish larvae; test: Locomotor behavior rescue (total distance moved, number of jumps) in 6-OHDA zebrafish PD model; assay type: in vivo; details: for Optimal concentration: behavioral experiments and TH+ cell counts; for Number of jumps: concentration validated as recovering the 6-OHDA induced behavior / Total distance travelled, difference between treated larvae and disease control: zebrafish, in vivo
Source text: To model Parkinson ̆s disease (PD), a neurotoxin 6-OHDA (6-hyroxydopamine) based method was used in zebrafish and in mice. In this model, 6-OHDA-lesions induce motor manifestations in zebrafish and in mice, such as reduced locomotor ability, and the loss of dopaminergic neurons. Based on the 6-OHDA PD zebrafish model, compounds from a small molecules library were screened for rescue of the parkinsonian phenotype (Example 1, see below).
The screen was based on both the recovery of impaired locomotor behavior and dopaminergic neuronal loss.
Values were normalized for the mean of disease state in each experiment (disease=1). Each plot contains data from 3 independent experiments with a total of 24 larvae. As a control, zebrafish were treated with only the vehicle, ascorbic acid.
For these experiments, Tubingen (TU) wild-type zebrafish, a specific strain of wild-type zebrafish, were used.

6-OHDA mouse model [5] = test: Abnormal involuntary movements, 6-OHDA mice (Example 5); assay type: in vivo; details: mouse, in vivo
Protocol: This condition results in a range of involuntary movements that can be evaluated by video tracking analyses. […] Evaluations were performed during two independent trials, 30 and 90 minutes after treatment administration. […] Nonetheless, forelimb and orofacial involuntary movements are extremely hard to detect, and reading errors occur, considering the size of the animals. Total abnormal involuntary movements are the sum of all 4 different involuntary movements evaluated and is the parameter often reported in the literature.
As FIGS. 17A-17F show, abnormal involuntary movements were evaluated using the cylinder test 28 days post injection. […] Values mean ě SEM (n=5-8).

[6] = cited from earlier work
[7] = 0.01 to 11.4 μg/mL; cited from earlier work
[8] = system: 6-OHDA treated zebrafish larvae; test: LD50 / lethality in the disease context of the zebrafish model
[9] = system: CY P1A2, CY P2C9, CY P2C19, CY P2D6, and CY P3A4; details: cited from earlier work
6-OHDA mouse model [10] = test: Rotarod test, unilateral striatal 6-OHDA mice (Example 5); assay type: in vivo; details: daily i.p., dosages tested (C1 and C2)
dogs = details: dog, in vivo, cited from earlier work
mouse = details: mouse, cited from earlier work
[11] = system: 6-OHDA treated zebrafish larvae; test: Rescue of Tyrosine hydroxylase (TH)-positive dopaminergic neurons in 6-OHDA zebrafish larvae; assay type: in vivo; details: for Neurorescue: TH+ neurons at optimal dose, p; for Neuroprotective effect / recovery of TH+ neurons: at the optimal concentration of each molecule
Protocol: The 7 candidates also were tested in terms of rescue of dopaminergic neurons positive for Tyrosine hydroxylase (Th) in the substancia nigra pars compacta of the test animals. […] Results were normalized for healthy control values (healthy control=100% of neurons). As a control, zebrafish were treated with only the vehicle, ascorbic acid. ‘6-OHDA_ represents results in zebrafish receiving no treatment.
FIGS. 6E-6G show representative Z-projections of confocal stacks of whole-mount anti-TH immunohistochemistry in 6 days post-fertilization (dpf) of zebrafish larvae (age of the fish) control (FIG. 6E), 6-OHDA (FIG. 6F), and tapentadol treated-larvae (FIG. 6G).

rat = details: rat, cited from earlier work
[12] = in DMSO; cited from earlier work
[13] = cited from earlier work; remark: listed apart in the source
[14] = in vivo; cited from earlier work
healthy wild type mice = test: Toxicity assay, welfare and necropsy (Example 6); details: tramadol 10 mg/kg in combination with L-Dopa; L-Dopa 18 mg/kg; 24 h
Protocol: Their behavior was evaluated with open field tests for 1 h after i.p. injection. After 24 h, animals were sacrificed and necropsy was performed
9 week old NMRI female mice were used for this assay. Animals were tested for their welfare after two intraperitoneal injections of the test agents using the open field test. Necropsy was done after cervical dislocation. […] Benserazide at 12 mg/kg was administered 30 minutes prior to administration of these compounds, in all groups. Saline was given to the control group.
After benserazide administration, animals were monitored in the open field for 30 minutes for habituation. […] 24 hours after administration of the compounds, the animals were sacrificed and necropsy performed.
For administration of the various agents to the animals, two 700 ? L injections were administered 30 minutes apart.

[15] = cited from earlier work; remark: listed apart in the source
COX-2 = target: T1, COX-2 (Homo sapiens, UniProt P35354); details: cited from earlier work
T1 sequence (P35354 18-604): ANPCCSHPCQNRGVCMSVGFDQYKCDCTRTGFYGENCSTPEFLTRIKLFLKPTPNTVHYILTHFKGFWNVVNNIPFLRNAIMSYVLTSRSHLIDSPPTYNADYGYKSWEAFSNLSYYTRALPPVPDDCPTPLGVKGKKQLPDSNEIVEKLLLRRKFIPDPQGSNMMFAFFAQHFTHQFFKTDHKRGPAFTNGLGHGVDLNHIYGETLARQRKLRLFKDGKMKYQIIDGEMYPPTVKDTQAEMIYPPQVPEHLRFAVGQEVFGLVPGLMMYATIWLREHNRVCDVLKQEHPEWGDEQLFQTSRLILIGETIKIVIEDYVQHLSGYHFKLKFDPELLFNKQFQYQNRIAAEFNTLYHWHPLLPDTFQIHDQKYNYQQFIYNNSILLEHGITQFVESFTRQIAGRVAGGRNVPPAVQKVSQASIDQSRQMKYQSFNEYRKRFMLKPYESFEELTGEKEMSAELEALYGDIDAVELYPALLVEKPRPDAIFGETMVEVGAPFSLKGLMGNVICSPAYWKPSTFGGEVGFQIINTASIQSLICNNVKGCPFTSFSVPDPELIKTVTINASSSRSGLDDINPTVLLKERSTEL

[16] = oral 1,000-2,000 mg to steady state

## COC(=O)C(c1ccccc1)C1CCCCN1 (stereo not shown) [Methylphenidate]
[1]
  Freezing recovery: more consistent freezing recovery

## Cc1cn([C@H]2C=C[C@@H](CO)O2)c(=O)[nH]c1=O [stavudine]
[1]
  Freezing recovery: positive results; also recorded: reverted freezing
  Duration of freezing periods, recovery vs 6-OHDA treated larvae: recovered
[2]
  Effect of co-administration with L-Dopa on locomotor recovery: not affected; also recorded: least effective; also recorded: not influenced
6-OHDA mouse model [3]; parameter disregarded
  Cylinder test: number of right turns: phenotypic recovery in a very similar way to L-Dopa
6-OHDA mouse model [3]; vs 6-OHDA group, daily i.p.
  Cylinder test: number of rearings: did not show recovery
  Cylinder test: percentage of animals with tremor: did not show recovery
  Cylinder test: percentage of contralateral paw use: did not show recovery
[4]; 6-OHDA zebrafish larvae
  Therapeutic window: 50 to 70 µM
[4]
  Optimal concentration: 50 µM
  Number of jumps: concentration validated as recovering the 6-OHDA induced behavior: 50 µM
  Total distance travelled, difference between treated larvae and disease control: 400 mm
6-OHDA mouse model [5]
  Induction of abnormal involuntary movements: None of the treatments, tapentadol or stavudine of the combination, induced involuntary movements
[6]; HIV-infected adult and pediatric patients, 1-hour IV infusion
  Clearance: 594 ± 164 mL/min
[6]; every 6, 8, or 12 hours
  Accumulation with repeated administration: no significant accumulation
[6]; healthy subjects receiving 80 mg PO
  Renal clearance: 272 mL/min
[6]; humans, regardless of the route
  Renal elimination, share of the overall clearance: about 40%
[6]; in adults
  Half-life: 48 to 90 min
[6]; oral administration
  Time of peak plasma concentrations after dosing: ≤ 1 h
[7]
  Protein binding: negligible
[8]; 6-OHDA disease-induced zebrafish larvae
  LD50: >10 mM
[8]; 6-OHDA zebrafish larvae
  LD50: > 10,000 μM
[9]
  Inhibition of major cytochrome P450 isoforms: not considered to inhibit
6-OHDA mouse model [10]
  Rotarod: latency to fall and speed, recovery: did not have an effect
dogs; iv
  LD50: 1,680 mg/kg
dogs; po
  LD50: 2,000 mg/kg
mouse; in vivo, iv
  LD50: 1,000 mg/kg
mouse; in vivo, po
  LD50: 1,000 mg/kg
[11]
  Neurorescue: confirmed p < 0.09
  Neuroprotective effect / recovery of TH+ neurons: confirmed
rat; in vivo, iv
  LD50: 1,200 mg/kg
rat; in vivo, po
  LD50: 4,000 mg/kg
rat
  LD50: 4 g/kg (rat)

## COC(=O)C1=C(C)NC(C)=C(C(=O)OC(C)C)C1c1cccc2nonc12 (stereo not shown) [Isradipine]
[2]
  Effect of co-administration with L-Dopa on locomotor recovery: lost its effect
[4]
  Optimal concentration: 0.045 µM
[4]; phenotype recovery, total distance moved
  Effective concentration / peak, small range plot: 0.045 µM and 0.084 µM
[12]
  Solubility: 25 mg/ml in
[11]
  Neurorescue: confirmed

## CC[C@@H](c1cccc(O[C@@H]2O[C@H](C(=O)O)[C@@H](O)[C@H](O)[C@H]2O)c1)[C@@H](C)CN(C)C [tapentadol-O-glucuronide]
[13]; mild renal impairment (CLCR=50 to <80 mL/min)
  AUC, fold higher compared with normal renal function: 1.5 fold
[13]; moderate renal impairment (CLCR=30 to <50 mL/min)
  AUC, fold higher compared with normal renal function: 2.5 fold
[13]; multiple (every 6 hour) dose study, 75 to 175 mg tapentadol
  Mean accumulation factor: 1.8
[13]; severe renal impairment (CLCR=<30 mL/min)
  AUC, fold higher compared with normal renal function: 5.5 fold
[14]
  Blood-brain barrier crossing: lower permeability through the blood brain barrier

## COc1cccc(C2(O)CCCCC2CN(C)C)c1 (stereo not shown) [tramadol]
Healthy wild type mice
  Necropsy findings: normal abdominal organs, with the exception of one that had a slight hyperemia in the small intestine

## COc1ccc2cc(CCC(C)=O)ccc2c1 [nabumetone]
[1]
  Freezing recovery: do not show an ability to recover freezing phenotype
  Duration of freezing periods, recovery vs 6-OHDA treated larvae: not recovered
[2]
  Effect of co-administration with L-Dopa on locomotor recovery: the same
[4]; 7 candidate molecules, 3 independent experiments
  Locomotor behavior rescue (total distance moved, number of jumps), confirmation of screen: strong candidates
[4]
  Optimal concentration: 0.9 µM
  Number of jumps: concentration validated as recovering the 6-OHDA induced behavior: 0.456 µM
  Total distance travelled, difference between treated larvae and disease control: ~200 mm
[15]; 1,000 mg oral dose
  Share of dose converted into unidentified metabolites: 50%
  Share of dose converted to 6MNA: Approximately 35%
[15]; in vivo
  Absorption from the gastrointestinal tract: well absorbed
[12]
  Solubility: 50 mg/ml in
[8]; 18 μM
  Embryo lethality: no dead embryos
[8]; 27 μM
  Embryo lethality: all of the embryos were dead
COX-2
  COX-2 inhibition: poor COX-2 inhibitor
mouse
  LD50: 4290 mg/kg
[11]
  Neurorescue: confirmed
  Neuroprotective effect / recovery of TH+ neurons: confirmed; also recorded: Recovery was observed
rat
  LD50: (mouse) or 3880 mg/kg

## COc1ccc2cc(CC(=O)O)ccc2c1 [6MNA, 6-methoxy-2-naphthylacetic acid]
[15]; concentrations typically achieved following 1,000 mg of nabumetone
  Printed only as 'It is 0.2-0.3%' (after plasma protein binding): 0.2-0.3%
[15]; in vivo
  Bound to plasma proteins: more than 99%
[15]; [16]
  Elimination half-life: approximately 24 hours
  Mean plasma clearance: 20 to 30 mL/min
COX-2; most likely through binding to the COX-2 and COX-1 receptors
  Inhibition of prostaglandin synthesis: potent inhibitor
